Results reported in ChEMBL document CHEMBL4483862, “Open-source discovery of chemical leads for next-generation chemoprotective antimalarials” (2018).

Tested on: Plasmodium berghei
Experiment: Luciferase/luciferin-expressing antifolate-resistant parasites were used to infect a culture of HepG2 cells that were pre-incubated with compounds. Infected hepatocytes emit light due to the luciferase reaction. Assay results are presented as the percent inhibition of light emission compared to control. […]
Format: functional
Settings: sporozoite; for IC90: read-out: LUCIFERASE INFECTION ASSAY - IC90

Row | SMILES | IC90 [µM] | other results
1 | CCCNC(=O)c1nnsc1S(=O)(=O)c1ccc(Cl)cc1 | > 9.54 | IC50 (HEPG2TOX_HILL_SLOPE 12.7, HEPG2TOX_R_SQUARED 0.778, PBLUC_HILL_SLOPE 22.3, PBLUC_R_SQUARED 0.0764, read-out: LUCIFERASE INFECTION ASSAY - IC50): 9.02 µM
2 | O=C(Nc1ccc(OC(F)(F)F)cc1)c1ccc2c(c1)no[n+]2[O-] | 7.89 | IC50 (HEPG2TOX_HILL_SLOPE 13, HEPG2TOX_R_SQUARED 0.448, PBLUC_HILL_SLOPE 2.82, PBLUC_R_SQUARED 0.324, read-out: LUCIFERASE INFECTION ASSAY - IC50): 3.62 µM
3 | Oc1c(C(c2ccccc2Cl)N2CCCC2)ccc2cccnc12 (configuration not stated) | 4.97 | IC50 (HEPG2TOX_HILL_SLOPE 12.7, HEPG2TOX_R_SQUARED 0.0314, PBLUC_HILL_SLOPE 8.39, PBLUC_R_SQUARED 0.486, read-out: LUCIFERASE INFECTION ASSAY - IC50): 3.83 µM
4 | CC(C)c1c(C(=O)NNC(=O)c2ccc3ccccc3n2)cnn1-c1ccccc1 | 3.77 | IC50 (HEPG2TOX_HILL_SLOPE 12.8, HEPG2TOX_R_SQUARED 0.528, PBLUC_HILL_SLOPE 15.6, PBLUC_R_SQUARED 0.425, read-out: LUCIFERASE INFECTION ASSAY - IC50): 3.28 µM
5 | CCOc1c(Br)cc(/C=C2/C(=O)N(C)c3ccccc32)cc1OC | > 10 | IC50 (HEPG2TOX_HILL_SLOPE 13, HEPG2TOX_R_SQUARED 0.388, read-out: LUCIFERASE INFECTION ASSAY - IC50): > 10 µM
6 | O=C(NCc1ccco1)C1Cc2c(-c3ccccc3)ccnc2O1 (configuration not stated) | 3.73 | IC50 (HEPG2TOX_HILL_SLOPE 12.7, HEPG2TOX_R_SQUARED 0.925, PBLUC_HILL_SLOPE 2.58, PBLUC_R_SQUARED 0.503, read-out: LUCIFERASE INFECTION ASSAY - IC50): 1.59 µM
7 | CN(C)c1ccc(CNCCC(c2ccc(F)cc2)c2ccco2)cc1 (configuration not stated) | 1.83 | IC50 (HEPG2TOX_HILL_SLOPE 13.3, HEPG2TOX_R_SQUARED 0.508, PBLUC_HILL_SLOPE 4.7, PBLUC_R_SQUARED 0.649, read-out: LUCIFERASE INFECTION ASSAY - IC50): 1.15 µM
8 | COc1ccc(-c2cc3[nH]c(NCc4ccccc4)nc3cn2)cc1OC | 5.34 | IC50 (HEPG2TOX_HILL_SLOPE 12.7, HEPG2TOX_R_SQUARED 0.819, PBLUC_HILL_SLOPE 80.4, PBLUC_R_SQUARED 0.69, read-out: LUCIFERASE INFECTION ASSAY - IC50): 5.2 µM
9 | CS(=O)(=O)c1ccc(C(=O)OC(C(=O)c2c[nH]c3ccccc23)c2ccccc2)cc1[N+](=O)[O-] (configuration not stated) | 7.61 | IC50 (HEPG2TOX_HILL_SLOPE 12.6, HEPG2TOX_R_SQUARED 0.833, PBLUC_HILL_SLOPE 19.7, 53.6, PBLUC_R_SQUARED 0.857, 0.714, read-out: LUCIFERASE INFECTION ASSAY - IC50): 7.02 µM
10 | O=C(Nc1ccc2c(c1)OC1(CCCC1)O2)N1CCN(c2ccc(O)cc2)CC1 | 4.23 | IC50 (HEPG2TOX_HILL_SLOPE 12.8, HEPG2TOX_R_SQUARED 0.476, PBLUC_HILL_SLOPE 2.26, PBLUC_R_SQUARED 0.894, read-out: LUCIFERASE INFECTION ASSAY - IC50): 1.6 µM
11 | CS(=O)(=O)c1ncc(Cl)c(C(=O)Nc2nc(-c3cc(F)ccc3F)cs2)n1 | 6.15 | IC50 (HEPG2TOX_HILL_SLOPE 13.3, HEPG2TOX_R_SQUARED 0.702, PBLUC_HILL_SLOPE 67.7, PBLUC_R_SQUARED 0.588, read-out: LUCIFERASE INFECTION ASSAY - IC50): 5.95 µM
12 | Cc1c(C)n(-c2nc3ccccc3s2)c2ncnc(NCCCN(C)C)c12 | > 8.67 | IC50 (HEPG2TOX_HILL_SLOPE 12.8, HEPG2TOX_R_SQUARED 0.501, PBLUC_HILL_SLOPE 2.59, PBLUC_R_SQUARED 0.498, read-out: LUCIFERASE INFECTION ASSAY - IC50): 7.19 µM
13 | CNC(=O)c1cccc(-c2ccc3ncc(-c4ccc(CO)cc4)n3n2)c1 | > 10 | IC50 (HEPG2TOX_HILL_SLOPE 13.1, HEPG2TOX_R_SQUARED 0.574, PBLUC_HILL_SLOPE 1.06, PBLUC_R_SQUARED 0.813, read-out: LUCIFERASE INFECTION ASSAY - IC50): 1.39 µM
14 | COc1ccc(-c2nn(-c3ccccc3)cc2/C=N/Nc2ncc(C(F)(F)F)cc2Cl)cc1OC | 2.33 | IC50 (HEPG2TOX_HILL_SLOPE 13.4, HEPG2TOX_R_SQUARED 0.529, PBLUC_HILL_SLOPE 3.64, PBLUC_R_SQUARED 0.734, read-out: LUCIFERASE INFECTION ASSAY - IC50): 1.27 µM
15 | CC(=O)OC1CCC2(C)C(CCC3C4CCC(C(C)C(=O)OCC(=O)c5ccccc5)C4(C)CC(=O)C32)C1 (configuration not stated) | 0.271 | IC50 (HEPG2TOX_HILL_SLOPE 12.9, HEPG2TOX_R_SQUARED 0.919, PBLUC_HILL_SLOPE 10.6, PBLUC_R_SQUARED 0.537, read-out: LUCIFERASE INFECTION ASSAY - IC50): 0.22 µM
16 | CC(=O)Nc1cccc(-c2ccc3c(-c4ccccc4Oc4ccccc4)[nH]nc3n2)c1 | > 7.85 | IC50 (HEPG2TOX_HILL_SLOPE 12.7, HEPG2TOX_R_SQUARED 0.516, PBLUC_HILL_SLOPE 10.9, PBLUC_R_SQUARED 0.441, read-out: LUCIFERASE INFECTION ASSAY - IC50): 6.81 µM

Row | SMILES | IC90 [µM] | other results
17 | CC(=O)c1cccc(NC(=O)Nc2ccc3nc(Cc4ccccc4)nn3c2)c1 | 4.13 | IC50 (HEPG2TOX_HILL_SLOPE 12.7, HEPG2TOX_R_SQUARED 0.848, PBLUC_HILL_SLOPE 19.5, PBLUC_R_SQUARED 0.366, read-out: LUCIFERASE INFECTION ASSAY - IC50): 3.69 µM
18 | Cc1cc(C(=O)C(C)OC(=O)CCn2cnc3c(cnn3C)c2=O)c(C)n1-c1ccc(Cl)cc1 (configuration not stated) | > 10 | IC50 (HEPG2TOX_HILL_SLOPE 12.8, HEPG2TOX_R_SQUARED 0.861, read-out: LUCIFERASE INFECTION ASSAY - IC50): > 10 µM
19 | CC1CCc2[nH]c3ccc(C(=O)NCc4ccccc4CN(C)C)cc3c2C1 (configuration not stated) | > 10 | IC50 (HEPG2TOX_HILL_SLOPE 12.7, HEPG2TOX_R_SQUARED 0.279, PBLUC_HILL_SLOPE 14.5, PBLUC_R_SQUARED 0.467, read-out: LUCIFERASE INFECTION ASSAY - IC50): 9.09 µM
20 | CCCCCCCCCCCCCCCCCC1=[N+](c2ccccc2)C(Nc2ccccc2)CN1c1ccccc1 (configuration not stated) | > 5.61 | IC50 (HEPG2TOX_HILL_SLOPE 13, HEPG2TOX_R_SQUARED 0.218, read-out: LUCIFERASE INFECTION ASSAY - IC50): > 5.61 µM
21 | CN1CCN(c2ccc(NC(=O)c3cc4c(s3)-c3ccccc3CC4)cn2)CC1 | 7.61 | IC50 (HEPG2TOX_HILL_SLOPE 13, HEPG2TOX_R_SQUARED 0.777, PBLUC_HILL_SLOPE 77.5, 23.4, PBLUC_R_SQUARED 0.0252, 0.733, read-out: LUCIFERASE INFECTION ASSAY - IC50): 7.13 µM
22 | COc1ccc(NS(=O)(=O)c2cc(NCc3ccccc3C)cc(C(=O)NCCN(C)C)c2)cc1 | > 6.64 | IC50 (HEPG2TOX_HILL_SLOPE 13.2, HEPG2TOX_R_SQUARED 0.729, PBLUC_HILL_SLOPE 3.39, PBLUC_R_SQUARED 0.479, read-out: LUCIFERASE INFECTION ASSAY - IC50): 4.55 µM
23 | CCN(CC(=O)Nc1ccccc1C(F)(F)F)CC(=O)N1CCc2ccccc21 | 7.42 | IC50 (HEPG2TOX_HILL_SLOPE 12.9, HEPG2TOX_R_SQUARED 0.752, PBLUC_HILL_SLOPE 284, PBLUC_R_SQUARED 0.135, read-out: LUCIFERASE INFECTION ASSAY - IC50): 7.36 µM
24 | O=C1C(=O)N(Cc2cccc(Cl)c2)c2c1cccc2C(F)(F)F | 6.09 | IC50 (HEPG2TOX_HILL_SLOPE 13.2, HEPG2TOX_R_SQUARED 0.969, PBLUC_HILL_SLOPE 2.5, PBLUC_R_SQUARED 0.616, read-out: LUCIFERASE INFECTION ASSAY - IC50): 2.53 µM
25 | CC(Sc1nc2ccccc2c(=O)n1-c1ccccc1F)c1nnc(-c2cccs2)o1 (configuration not stated) | > 10 | IC50 (HEPG2TOX_HILL_SLOPE 12.8, HEPG2TOX_R_SQUARED 0.22, PBLUC_HILL_SLOPE 16.4, PBLUC_R_SQUARED 0.485, read-out: LUCIFERASE INFECTION ASSAY - IC50): 8.88 µM
26 | CC(C)Oc1ccc(S(=O)(=O)N2CCOCC2)cc1NC(=O)c1cc(-c2ccccc2)n[nH]1 | 4.44 | IC50 (HEPG2TOX_HILL_SLOPE 13.1, HEPG2TOX_R_SQUARED 0.378, PBLUC_HILL_SLOPE 12.6, PBLUC_R_SQUARED 0.276, read-out: LUCIFERASE INFECTION ASSAY - IC50): 3.73 µM
27 | COc1ccc(CN2C(=O)c3ccccc3C(C=NNc3nc(=O)cc(C)[nH]3)C2=O)cc1 (configuration not stated) | 3.8 | IC50 (HEPG2TOX_HILL_SLOPE 12.8, HEPG2TOX_R_SQUARED 0.611, PBLUC_HILL_SLOPE 3.06, PBLUC_R_SQUARED 0.688, read-out: LUCIFERASE INFECTION ASSAY - IC50): 1.85 µM
28 | CC(C)c1ccc(NC(=O)Nc2ccc3nc(-c4ccccn4)nn3c2)cc1 | 4.2 | IC50 (HEPG2TOX_HILL_SLOPE 13, HEPG2TOX_R_SQUARED 0.696, PBLUC_HILL_SLOPE 14.3, PBLUC_R_SQUARED 0.36, read-out: LUCIFERASE INFECTION ASSAY - IC50): 3.6 µM
29 | CCCN1C/C(=C/c2csnn2)C(=O)/C(=C/c2csnn2)C1 | > 10 | IC50 (HEPG2TOX_HILL_SLOPE 13.3, HEPG2TOX_R_SQUARED 0.713, read-out: LUCIFERASE INFECTION ASSAY - IC50): > 10 µM
30 | CN(C)c1ccc(-c2cc3c(cn2)nc(NCc2ccccc2F)n3C)cc1 | > 10 | IC50 (HEPG2TOX_HILL_SLOPE 12.8, HEPG2TOX_R_SQUARED 0.633, PBLUC_HILL_SLOPE 3.52, PBLUC_R_SQUARED 0.567, read-out: LUCIFERASE INFECTION ASSAY - IC50): 5.77 µM
31 | CCc1nc(CN2CC=C(c3c[nH]c4ccccc34)CC2)cs1 | 7.32 | IC50 (HEPG2TOX_HILL_SLOPE 12.8, HEPG2TOX_R_SQUARED 0.446, PBLUC_HILL_SLOPE 9.90, 7.64, PBLUC_R_SQUARED 0.0237, 0.266, read-out: LUCIFERASE INFECTION ASSAY - IC50): 5.75 µM
